ChEMBL document CHEMBL1201862, “PubChem BioAssay data set” (2004)
Activity calls are given as the source filed them.

Columns and labels:
[1] = biological target: T1, Endoribonuclease toxin MazF (Escherichia coli K-12, UniProt P0AE70); assay: MazF toxin RNase activators, dose response, biochemical, fluorescence, single-stranded RNA substrate, uHTS hits (AID 588481); assay type: functional
T1 sequence (P0AE70 whole entry): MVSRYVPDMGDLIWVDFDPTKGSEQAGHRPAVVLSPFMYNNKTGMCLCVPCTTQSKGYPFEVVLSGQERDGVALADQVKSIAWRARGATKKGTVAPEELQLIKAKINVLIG

[2] = biological target: T1, Endoribonuclease toxin MazF; assay: fluorescent RNA oligo signal without MazF, dose response, counter-screen for MazEF activator project, biochemical, fluorescence, single-stranded RNase substrate (AID 588502); assay type: functional
[3] = test system: HEK293; assay: HEK cell cytotoxicity by LDH release, dose response, cytotoxicity control for IDE activator project, fluorescence, HEK cells (AID 588440); assay type: functional, cell-based; conditions: Homo sapiens;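 note: cytotoxicity by LDH release measuring loss of membrane integrity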
[4] = biological target: T2, Insulin-degrading enzyme (Homo sapiens, UniProt P14735); assay: activators of recombinant IDE enzyme, dose response, counter-screen for IDE activator project, biochemical, fluorescence polarization (AID 588681)
T2 sequence (P14735 whole entry): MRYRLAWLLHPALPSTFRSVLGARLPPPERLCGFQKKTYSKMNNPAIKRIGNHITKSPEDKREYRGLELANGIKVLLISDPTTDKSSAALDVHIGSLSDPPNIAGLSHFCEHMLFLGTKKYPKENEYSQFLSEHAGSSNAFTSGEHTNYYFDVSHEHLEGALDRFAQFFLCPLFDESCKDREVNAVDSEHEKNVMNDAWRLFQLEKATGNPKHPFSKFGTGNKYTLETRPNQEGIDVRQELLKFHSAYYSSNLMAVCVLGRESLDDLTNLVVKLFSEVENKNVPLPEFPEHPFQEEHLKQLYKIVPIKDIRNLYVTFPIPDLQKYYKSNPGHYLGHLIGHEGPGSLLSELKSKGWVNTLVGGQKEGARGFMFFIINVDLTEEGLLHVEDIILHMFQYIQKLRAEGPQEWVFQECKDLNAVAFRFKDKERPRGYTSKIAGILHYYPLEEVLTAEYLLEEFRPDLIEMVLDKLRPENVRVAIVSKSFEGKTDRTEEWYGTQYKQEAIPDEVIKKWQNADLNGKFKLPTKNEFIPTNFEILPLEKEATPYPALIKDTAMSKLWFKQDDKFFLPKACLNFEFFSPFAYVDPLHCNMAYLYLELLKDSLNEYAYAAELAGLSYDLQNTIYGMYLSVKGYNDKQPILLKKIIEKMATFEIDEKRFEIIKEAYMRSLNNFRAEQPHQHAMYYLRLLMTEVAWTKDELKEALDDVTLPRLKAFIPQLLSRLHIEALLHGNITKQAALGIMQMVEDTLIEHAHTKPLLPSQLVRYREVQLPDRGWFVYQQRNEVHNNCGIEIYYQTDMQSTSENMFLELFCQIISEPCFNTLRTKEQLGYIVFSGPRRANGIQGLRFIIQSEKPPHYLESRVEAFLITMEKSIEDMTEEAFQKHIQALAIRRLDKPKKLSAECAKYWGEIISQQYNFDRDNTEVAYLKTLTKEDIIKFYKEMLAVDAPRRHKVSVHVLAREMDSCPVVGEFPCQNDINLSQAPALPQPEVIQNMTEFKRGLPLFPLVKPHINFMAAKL

[5] = test system: HEK293; assay: optical interference in Abeta FP readout, dose response, artefact control for IDE activator project, biochemical, fluorescence polarization (AID 588442); assay type: functional, cell-based; conditions: Homo sapiens
[6] = biological target: T2, Insulin-degrading enzyme; assay: activators of endogenous IDE in HEK cells, dose response, cell-based, fluorescence polarization (AID 588439); assay type: functional
[7] = biological target: T3, Sentrin-specific protease 7 (Homo sapiens, UniProt Q9BQF6); assay type: functional;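 note: Luminescence-based dose-response confirmation of ultra-high-throughput screening hits, measuring inhibition of SENP7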
T3 sequence (Q9BQF6 whole entry): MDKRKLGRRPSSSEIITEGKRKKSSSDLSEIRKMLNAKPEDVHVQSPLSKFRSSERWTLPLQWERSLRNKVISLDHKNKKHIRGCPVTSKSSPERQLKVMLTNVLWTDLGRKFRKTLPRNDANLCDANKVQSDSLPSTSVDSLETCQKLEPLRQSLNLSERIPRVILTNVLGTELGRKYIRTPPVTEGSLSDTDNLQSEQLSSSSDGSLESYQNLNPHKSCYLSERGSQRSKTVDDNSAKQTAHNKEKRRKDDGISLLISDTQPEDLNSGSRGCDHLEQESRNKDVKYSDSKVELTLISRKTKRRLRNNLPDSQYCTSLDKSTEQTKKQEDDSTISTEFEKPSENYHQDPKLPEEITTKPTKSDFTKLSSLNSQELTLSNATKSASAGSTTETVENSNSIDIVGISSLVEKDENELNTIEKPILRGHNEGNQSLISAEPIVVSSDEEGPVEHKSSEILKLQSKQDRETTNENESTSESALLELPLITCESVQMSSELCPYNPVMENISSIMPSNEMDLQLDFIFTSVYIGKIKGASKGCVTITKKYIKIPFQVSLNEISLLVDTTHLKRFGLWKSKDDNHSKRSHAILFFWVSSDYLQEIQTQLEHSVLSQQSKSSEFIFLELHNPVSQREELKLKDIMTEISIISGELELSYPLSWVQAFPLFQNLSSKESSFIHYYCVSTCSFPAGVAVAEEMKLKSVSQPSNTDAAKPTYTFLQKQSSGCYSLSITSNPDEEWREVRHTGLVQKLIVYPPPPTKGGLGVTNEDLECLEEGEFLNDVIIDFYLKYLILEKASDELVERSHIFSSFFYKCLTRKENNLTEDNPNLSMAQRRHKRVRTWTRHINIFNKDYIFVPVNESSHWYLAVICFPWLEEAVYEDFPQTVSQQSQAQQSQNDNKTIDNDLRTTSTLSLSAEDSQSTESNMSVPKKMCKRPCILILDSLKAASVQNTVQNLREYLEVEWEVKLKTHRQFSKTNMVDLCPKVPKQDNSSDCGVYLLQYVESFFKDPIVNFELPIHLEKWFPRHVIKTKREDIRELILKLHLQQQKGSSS

[8] = biological target: T4, Caspase-3 (Homo sapiens, UniProt P42574); assay type: functional;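 note: Dose-response selectivity test against caspase-3 for candidate inhibitors of sentrin-specific proteases (SENPs)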
T4 sequence (P42574 whole entry): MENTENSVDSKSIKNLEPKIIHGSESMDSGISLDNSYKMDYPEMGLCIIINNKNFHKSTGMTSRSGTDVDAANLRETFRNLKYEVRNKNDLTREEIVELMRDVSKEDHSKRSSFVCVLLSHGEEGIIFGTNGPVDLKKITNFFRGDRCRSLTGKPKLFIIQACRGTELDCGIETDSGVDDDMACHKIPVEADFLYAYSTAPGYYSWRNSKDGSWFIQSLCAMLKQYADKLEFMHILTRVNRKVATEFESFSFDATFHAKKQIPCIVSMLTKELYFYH

[9] = biological target: T5, Sentrin-specific protease 6 (Homo sapiens, UniProt Q9GZR1); assay type: functional;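 note: Luminescence-based dose-response confirmatory assay of SENP6 inhibition, following up an ultra-high-throughput screen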
T5 sequence (Q9GZR1 whole entry): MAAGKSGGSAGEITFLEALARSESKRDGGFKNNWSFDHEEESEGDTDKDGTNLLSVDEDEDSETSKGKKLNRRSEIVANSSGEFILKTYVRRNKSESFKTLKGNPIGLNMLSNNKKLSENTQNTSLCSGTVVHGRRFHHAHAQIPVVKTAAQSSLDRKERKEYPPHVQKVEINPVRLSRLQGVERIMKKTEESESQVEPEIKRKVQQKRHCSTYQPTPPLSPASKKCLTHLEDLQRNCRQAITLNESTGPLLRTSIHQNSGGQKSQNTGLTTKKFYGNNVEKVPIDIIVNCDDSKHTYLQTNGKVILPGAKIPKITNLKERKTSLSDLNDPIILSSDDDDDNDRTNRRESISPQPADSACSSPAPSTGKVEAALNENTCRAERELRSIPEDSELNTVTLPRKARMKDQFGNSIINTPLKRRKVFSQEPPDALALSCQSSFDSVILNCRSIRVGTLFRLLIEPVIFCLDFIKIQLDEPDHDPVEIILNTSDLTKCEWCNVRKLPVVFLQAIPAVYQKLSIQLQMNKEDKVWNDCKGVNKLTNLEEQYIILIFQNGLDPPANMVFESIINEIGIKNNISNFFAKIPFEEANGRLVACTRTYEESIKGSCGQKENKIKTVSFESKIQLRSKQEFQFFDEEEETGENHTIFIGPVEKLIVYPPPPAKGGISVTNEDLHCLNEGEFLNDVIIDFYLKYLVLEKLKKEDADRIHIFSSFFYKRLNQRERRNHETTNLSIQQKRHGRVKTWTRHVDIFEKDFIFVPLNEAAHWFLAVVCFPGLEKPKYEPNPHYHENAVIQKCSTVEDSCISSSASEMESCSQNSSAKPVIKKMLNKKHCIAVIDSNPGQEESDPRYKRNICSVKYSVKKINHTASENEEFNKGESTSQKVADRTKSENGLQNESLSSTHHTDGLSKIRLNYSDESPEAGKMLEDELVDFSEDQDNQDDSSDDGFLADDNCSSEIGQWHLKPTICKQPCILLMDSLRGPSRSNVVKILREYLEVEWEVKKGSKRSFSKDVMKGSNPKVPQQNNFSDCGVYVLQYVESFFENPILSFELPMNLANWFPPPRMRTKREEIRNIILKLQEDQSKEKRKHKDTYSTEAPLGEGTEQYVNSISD

[10] = biological target: T6, Sentrin-specific protease 8 (Homo sapiens, UniProt Q96LD8); assay type: functional;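 note: luminescence read-out of SENP8 inhibition, dose-response confirmation following an ultra-high-throughput screen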
T6 sequence (Q96LD8 whole entry): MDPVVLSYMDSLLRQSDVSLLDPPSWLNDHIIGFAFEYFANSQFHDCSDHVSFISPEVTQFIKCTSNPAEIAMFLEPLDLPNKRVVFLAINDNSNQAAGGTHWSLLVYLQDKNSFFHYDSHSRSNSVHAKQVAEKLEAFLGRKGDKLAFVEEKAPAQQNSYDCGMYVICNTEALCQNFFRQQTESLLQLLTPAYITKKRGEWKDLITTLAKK

[11] = biological target: T7, Oxysterols receptor LXR-beta (Homo sapiens, UniProt P55055); assay type: functional, cell-based;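 note: agonist activity at LXR measured by a cell-based luminescence readout across a dose range, run as a counterscreen for daf-12 agonists; HEK293 cells with Gal4-LXR fusion and GAL4-driven luciferase reporter; potency for activation of Gal4-LXR reporter so compounds are agonists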
T7 sequence (P55055 whole entry): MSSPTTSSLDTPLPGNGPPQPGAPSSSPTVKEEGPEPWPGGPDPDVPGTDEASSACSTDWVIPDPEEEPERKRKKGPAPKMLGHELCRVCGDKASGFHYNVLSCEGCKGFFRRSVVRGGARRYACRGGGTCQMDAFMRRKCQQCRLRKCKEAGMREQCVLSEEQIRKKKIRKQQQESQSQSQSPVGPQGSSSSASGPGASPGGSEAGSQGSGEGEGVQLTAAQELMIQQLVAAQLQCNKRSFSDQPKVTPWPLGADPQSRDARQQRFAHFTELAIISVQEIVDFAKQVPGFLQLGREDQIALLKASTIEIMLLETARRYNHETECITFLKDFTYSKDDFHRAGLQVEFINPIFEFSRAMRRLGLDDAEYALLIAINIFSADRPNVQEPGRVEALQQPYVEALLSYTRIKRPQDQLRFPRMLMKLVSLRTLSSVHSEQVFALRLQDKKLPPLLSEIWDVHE

## COc1cccc(C2=CC(c3ccc(N(C)C)cc3)n3nnnc3N2)c1 (stereo not drawn)
[1]
  EC50: > 99 µM (inactive)
[2]
  EC50: > 99 µM (inactive)

## CC(=O)Nc1ccc(S(=O)(=O)NCCc2ccccn2)cc1
[3]
  IC50: > 89.2 µM (inactive)
[4]
  EC50: > 54.7 µM (inactive)
[5]
  EC50: > 56 µM (inactive)
[6]
  EC50: > 54.7 µM (inactive)

## CSC1=N/C(=C\c2ccc(C)s2)C(=O)S1
[1]
  EC50: 89.7 µM (inactive)
[2]
  EC50: 72 µM (inactive)

## CCOc1ccc2nc(NC(=O)Nc3cccs3)sc2c1
[7]
  IC50: 8.66 µM (active)
[8]
  IC50: 29.9 µM (active)
[9]
  IC50: 19.2 µM (active)
[10]
  IC50: 24.1 µM (active)
[11]
  EC50: > 67.5 µM (inactive)
